Laboratory results published in US20210038587A1, “METHODS AND COMPOSITIONS FOR TREATING NON-ERK MAPK PATHWAY INHIBITOR-RESISTANT CANCERS” (BIOMED VALLEY DISCOVERIES, INC., priority 2013, published 2021).

Legend:
Test in all cases: Reverse Phase Protein Analysis (RPPA)
Details in all cases: % change from DMSO (matched cell line)
HT29 = format: cell-based
Description: (§1) Control wells were treated with DMSO at 0.1% (v/v) for 6 hours prior to cell lysate generation. Samples were then analyzed using reverse-phase protein microarray technology (Theranostics Health).
(§2) Cell lines with common alterations in BRAF and RAS were assayed: BRAF^V600E mutant lines A375, Colo205, and HT29; KRAS^G12C-mutant cell line MIAPACa-2; KRAS^G13D-mutant cell line HCT116; and AN3Ca with atypical HRAS^F82L mutation. Changes in protein levels are shown as a percentage change from dimethyl sulfoxide (DMSO)-treated parental control (FIG. 32A and Table 23).

AN3Ca = format: cell-based
Description: as §1, §2

HCT116 = format: cell-based, human
Description: as §1, §2

Compound: O=C(Nc1ccc2[nH]nc(-c3ccncc3)c2c1)[C@@H]1CCN(CC(=O)N2CCN(c3ccc(-c4ncccn4)cc3)CC2)C1 [SCH772984]
- Avg(p70 S6 Kinase T389 T412) (HT29): −9.55%
- Avg (4ebp1 T70) (AN3Ca): 61.57%
- Avg (Akt S473) (AN3Ca): 66.17%
- Avg (Akt) (AN3Ca): −16.35%
- Avg (Bad S136) (AN3Ca): 5.26%
- Avg (Bad S155) (AN3Ca): 12.92%
- Avg (Bak) (AN3Ca): 9.73%
- Avg (Bax) (AN3Ca): 0.15%
- Avg (Bcl 2) (AN3Ca): −5.14%
- Avg (Bcl2 S70) (AN3Ca): −12.42%
- Avg (Bcl 2 T56) (AN3Ca): −10.73%
- Avg (Bim) (AN3Ca): −14.09%
- Avg (CREB S133) (AN3Ca): 3.64%
- Avg (Caspase 3 CL D175) (AN3Ca): 1.25%
- Avg (Caspase 7 Cl D198) (AN3Ca): −24.17%
- Avg (Chk1) (AN3Ca): 1.35%
- Avg (Chk1 S345) (AN3Ca): 14.56%
- Avg (Cyclin D1) (AN3Ca): −11.33%
- Avg (ERK 1 2) (AN3Ca): −9.27%
- Avg (ERK 1 2 T202 Y204) (AN3Ca): 19.75%
- Avg (MAK1 S360) (AN3Ca): −5.02%
- Avg (Mcl1) (AN3Ca): −7.15%
- Avg (Raptor S792) (AN3Ca): −4.03%
- Avg (Raptor) (AN3Ca): −11.09%
- Avg (Rictor) (AN3Ca): −10.89%
- Avg (Stat1) (AN3Ca): 5.52%
- Avg (Stat3) (AN3Ca): −6.01%
- Avg (bad S112) (AN3Ca): −39.14%
- Avg (c Fos) (AN3Ca): −9.18%
- Avg (c Myc) (AN3Ca): 0.88%
- Avg (mTOR S2448) (AN3Ca): −4.84%
- Avg (mTOR S2481) (AN3Ca): 11.24%
- Avg (mTOR) (AN3Ca): −5.33%
- Avg (p70 S6 Kinase) (AN3Ca): −7.71%
- Avg (p90 RSK S380) (AN3Ca): −40.26%
- Avg(S6 Ribo Prot S235 236) (AN3Ca): −61.99%
- Avg(S6 Ribo Prot S240 244) (AN3Ca): −35.88%
- Avg(Tuberin TSC2 Y1571) (AN3Ca): 13.44%
- Avg(p70 S6 Kinase S371 S394) (AN3Ca): 24.56%
- Avg(p70 S6 Kinase T389 T412) (AN3Ca): −16.63%
- Avg (4ebp1 T70) (HCT116): 5.6%
- Avg (Akt S473) (HCT116): −8.76%
- Avg (Akt) (HCT116): −9.86%
- Avg (Bad S136) (HCT116): −10.55%
- Avg (Bad S155) (HCT116): −22.96%
- Avg (Bak) (HCT116): −4.66%
- Avg (Bax) (HCT116): −13.86%
- Avg (Bcl 2) (HCT116): −10.58%
- Avg (Bcl2 S70) (HCT116): −18.34%
- Avg (Bcl 2 T56) (HCT116): −15.89%
- Avg (Bim) (HCT116): 1.95%
- Avg (CREB S133) (HCT116): −24.18%
- Avg (Caspase 3 CL D175) (HCT116): −4.63%
- Avg (Caspase 7 Cl D198) (HCT116): −16.35%
- Avg (Chk1) (HCT116): −5.58%
- Avg (Chk1 S345) (HCT116): −18.51%
- Avg (Cyclin D1) (HCT116): −73.21%
- Avg (ERK 1 2) (HCT116): −10.22%
- Avg (ERK 1 2 T202 Y204) (HCT116): −75.21%
- Avg (MAK1 S360) (HCT116): −15.32%
- Avg (Mcl1) (HCT116): −6.55%
- Avg (Raptor S792) (HCT116): −18.18%
- Avg (Raptor) (HCT116): −9.66%
- Avg (Rictor) (HCT116): −18.5%
- Avg (Stat1) (HCT116): −10.74%
- Avg (Stat3) (HCT116): −7.67%
- Avg (bad S112) (HCT116): −31.29%
- Avg (c Fos) (HCT116): −15.27%
- Avg (c Myc) (HCT116): −12.86%
- Avg (mTOR S2448) (HCT116): −16.05%
- Avg (mTOR S2481) (HCT116): −22.53%
- Avg (mTOR) (HCT116): −12.56%
- Avg (p70 S6 Kinase) (HCT116): −14.12%
- Avg (p90 RSK S380) (HCT116): −33.7%
- Avg(S6 Ribo Prot S235 236) (HCT116): −93.86%
- Avg(S6 Ribo Prot S240 244) (HCT116): −91.07%
- Avg(Tuberin TSC2 Y1571) (HCT116): −16.17%
- Avg(p70 S6 Kinase S371 S394) (HCT116): −12.3%
- Avg(p70 S6 Kinase T389 T412) (HCT116): −24.63%
